Source: US7566737B2 (Genfit, priority 2002, dated 2009)

Biological target: T1, human PPARγ (Homo sapiens, UniProt P37231)
T1 construct: expressed in transfected cells; host or cells: RK13 or COS-7
T1 sequence (P37231 238-503 limits assumed): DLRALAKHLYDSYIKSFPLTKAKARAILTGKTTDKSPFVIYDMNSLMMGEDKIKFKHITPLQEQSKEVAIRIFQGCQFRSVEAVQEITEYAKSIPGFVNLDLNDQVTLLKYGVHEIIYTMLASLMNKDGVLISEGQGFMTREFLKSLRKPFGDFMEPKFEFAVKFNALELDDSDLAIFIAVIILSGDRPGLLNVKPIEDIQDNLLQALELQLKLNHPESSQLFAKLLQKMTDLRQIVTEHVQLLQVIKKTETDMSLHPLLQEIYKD
Experiment: PPARγ/Gal4 transactivation system
Assay type: cell-based
Conditions: 10 μM
Method: PPAR activation was tested in vitro in RK13 or COS-7 fibroblast cell lines by measuring the transcriptional activity of chimeras composed of the DNA binding domain of the yeast Gal4 transcription factor and the ligand binding domain of the different PPARs. These latter results were then confirmed in cell lines according to the following protocols.
Culture protocols: RK13 were from ECACC (Porton Down, UK) and were grown in DMEM medium supplemented with 10% (V/V) fetal calf serum, 100 U/ml penicillin (Gibco, Paisley, UK) and 2 mM L-glutamine (Gibco, Paisley, UK). COS-7 cells were from ATCC and were grown in DMEM medium supplemented with 10% (V/V) fetal calf serum, 1% penicillin/streptomycine (Biochrom, AG), 1% of amino acids (Gibco) and 1% sodium pyruvate (Gibco).
The culture medium was changed every two days. Cells were kept at 37° C. in a humidified 95% air/5% CO2 atmosphere.
Description of plasmids used for transfection: The plasmids Gal4(RE)_TkpGL3, pGal4-hPPARα, pGal4-hPPARγ, pGal4-hPPARδ and pGal4-φ have been described in the literature (Raspe E et al., 1999). The pGal4-hPPARα, pGal4-hPPARγ and pGal4-hPPARδ constructs were obtained by cloning into the pGal4-φ vector PCR-amplified DNA fragments corresponding to the DEF domains of the human PPARs nuclear receptors.
Transfection of RK13: RK13 cells were seeded in 24-well culture dishes at 5×10^4 cells/well and transfected for 2 hours with the reporter plasmid Gal4(RE)_TkpGL3 (50 ng/well), the expression vectors pGal4-φ, pGal4-hPPARα, pGal4-hPPARγ and pGal-hPPARδ (100 ng/well) and the transfection efficiency control vector pRL-CMV (1 ng/well) according to the previously described protocol (Raspe E, Madsen L, Lefebvre A M, Leitersdorf I, Gelman L, Peinado-Onsurbe J, Dallongeville J, Fruchart J C, Berge R and Staels B, 1999), then incubated for 36 hours with the test compounds. RK13 cells were incubated with the different compounds at concentrations of 10, 30 and 100 μM or 1, 10 and 100 μM for 24 hours. At the end of the experiment, the cells were lysed (Gibco, Paisley, UK) and luciferase activity was determined with a Dual-Luciferase™ Reporter Assay System kit (Promega, Madison, Wis., USA) according to the supplier's instructions. The protein content of the cell extracts was then measured with the Bio-Rad Protein Assay (Bio-Rad, Munich, Germany) as directed by the supplier.
Transfection of COS7: Cells in suspension are transfected, in the presence of 10% (V/V) fetal calf serum, with 150 ng of DNA per well with a pGal4-PPAR/Gal4(RE)_TkpGL3 ratio of 1/10. Cells are then seeded in 96 well plates (4×10^4 cells/well) and incubated for 24 hours at 37° C. Activation with compounds is performed on 24 hours at 37° C. in culture medium without serum. At the end of the activation period, cells are lysed and luciferase activity is determined, using the Steady Glow Luciferase Kit (Promega), according to the supplier's instructions.

## CSc1ccc(C(=O)/C=C/c2cc(C)c(OC(C)(C)C(=O)O)c(C)c2)cc1 [Compound 29, 1-[4-methylthiophenyl]-3-[3,5-dimethyl-4-carboxydimethylmethyloxyphenyl]prop-2-en-1-one]
  maximum induction factor: 33.9
